Test results: patent US8609661B2, “Pyrimido-pyrrolo-quinoxalinedione inhibitors of cystic fibrosis transmembrane conductance regulator protein and uses therefor” (The Regents of the University of California, priority 2009, dated 2013)
Like-named read-outs stand apart in the source and are kept apart here.

Target: T1, human wildtype CFTR (Homo sapiens, UniProt P13569)
T1 construct: expressed in transfected cells; host or cells: Fischer rat thyroid (FRT) cells
Test: Fluorescence platereader assay of CFTR-mediated iodide influx (YFP quenching) in FRT cells
Assay type: cell-based
Details: for inhibition at 5 µM / inhibition at 25 µM: FRT; for IC50: apparent IC50 from concentration-inhibition data, fluorescence platereader assay
Description: A. Cell lines and compounds—Fischer rat thyroid (FRT) cells co-expressing human wildtype CFTR and the halide indicator YFP-H148Q/1152L were generated as described (see, e.g., Ma et al., J. Clin. Invest. 110:1651-1658 (2002)). Cells were plated in 96-well black-walled microplates (Corning Costar) at a density of 20,000 cells per well in Coon's modified F12 medium supplemented with 5% fetal calf serum, 2 mM L-glutamine, 100 U/mL penicillin, and 100 μg/ml streptomycin. Assays were performed at 48 h after plating the cells when the cells were just confluent. For some experiments, measurements were made using T84 human intestinal epithelial cells and for other experiments, measurements were obtained using primary cultures of human bronchial epithelial cells, which were obtained and grown essentially as previously described (see, e.g., 3 and 27).
B. Compound Screening—Assays were performed using an automated screening platform (Beckman) equipped with FLUOStar fluorescence platereaders (BMG Lab Technologies, Offenburg, Germany) as described (see Ma et al., supra). Each well of a 96-well plate containing FRT cells was washed 3 times in PBS (300 μL/wash), leaving 50 μL PBS. […] After 15 min, 96-well plates were transferred to a plate reader for fluorescence assay. Each well was assayed individually for CFTR-mediated iodide influx by recording fluorescence continuously (200 ms per point) for 2 s (baseline) and then for 10 s after rapid addition of 160 μL of isosmolar PBS in which 137 mM chloride was replaced by iodide. The initial rate of iodide influx was computed from fluorescence data by non-linear regression.
Collections of synthetic and natural compounds were screened according to the screening procedures described in Example 2. A cell-based fluorescence assay was used in which CFTR inhibitors were identified by reduced iodide influx in FRT cells co-expressing human CFTR and a YFP halide sensor. CFTR was maximally activated by a mixture of agonists having different activating mechanisms. Inhibition of iodide influx was observed as reduced YFP fluorescence quenching in response to rapid iodide addition to each well of 96-well plates. […]

[1] = read-out: % inhibition at 25/5 μM (5 μM value), Table 1, 5 μM compound
[2] = read-out: % inhibition at 25/5 μM (25 μM value), Table 1, 25 μM compound
[3] = Table 2, screening, 5 μM, read-out: % Inhibition at 5 μM
[4] = Table 2, screening, 25 μM, read-out: % Inhibition at 25 μM

T1 sequence (P13569 whole entry): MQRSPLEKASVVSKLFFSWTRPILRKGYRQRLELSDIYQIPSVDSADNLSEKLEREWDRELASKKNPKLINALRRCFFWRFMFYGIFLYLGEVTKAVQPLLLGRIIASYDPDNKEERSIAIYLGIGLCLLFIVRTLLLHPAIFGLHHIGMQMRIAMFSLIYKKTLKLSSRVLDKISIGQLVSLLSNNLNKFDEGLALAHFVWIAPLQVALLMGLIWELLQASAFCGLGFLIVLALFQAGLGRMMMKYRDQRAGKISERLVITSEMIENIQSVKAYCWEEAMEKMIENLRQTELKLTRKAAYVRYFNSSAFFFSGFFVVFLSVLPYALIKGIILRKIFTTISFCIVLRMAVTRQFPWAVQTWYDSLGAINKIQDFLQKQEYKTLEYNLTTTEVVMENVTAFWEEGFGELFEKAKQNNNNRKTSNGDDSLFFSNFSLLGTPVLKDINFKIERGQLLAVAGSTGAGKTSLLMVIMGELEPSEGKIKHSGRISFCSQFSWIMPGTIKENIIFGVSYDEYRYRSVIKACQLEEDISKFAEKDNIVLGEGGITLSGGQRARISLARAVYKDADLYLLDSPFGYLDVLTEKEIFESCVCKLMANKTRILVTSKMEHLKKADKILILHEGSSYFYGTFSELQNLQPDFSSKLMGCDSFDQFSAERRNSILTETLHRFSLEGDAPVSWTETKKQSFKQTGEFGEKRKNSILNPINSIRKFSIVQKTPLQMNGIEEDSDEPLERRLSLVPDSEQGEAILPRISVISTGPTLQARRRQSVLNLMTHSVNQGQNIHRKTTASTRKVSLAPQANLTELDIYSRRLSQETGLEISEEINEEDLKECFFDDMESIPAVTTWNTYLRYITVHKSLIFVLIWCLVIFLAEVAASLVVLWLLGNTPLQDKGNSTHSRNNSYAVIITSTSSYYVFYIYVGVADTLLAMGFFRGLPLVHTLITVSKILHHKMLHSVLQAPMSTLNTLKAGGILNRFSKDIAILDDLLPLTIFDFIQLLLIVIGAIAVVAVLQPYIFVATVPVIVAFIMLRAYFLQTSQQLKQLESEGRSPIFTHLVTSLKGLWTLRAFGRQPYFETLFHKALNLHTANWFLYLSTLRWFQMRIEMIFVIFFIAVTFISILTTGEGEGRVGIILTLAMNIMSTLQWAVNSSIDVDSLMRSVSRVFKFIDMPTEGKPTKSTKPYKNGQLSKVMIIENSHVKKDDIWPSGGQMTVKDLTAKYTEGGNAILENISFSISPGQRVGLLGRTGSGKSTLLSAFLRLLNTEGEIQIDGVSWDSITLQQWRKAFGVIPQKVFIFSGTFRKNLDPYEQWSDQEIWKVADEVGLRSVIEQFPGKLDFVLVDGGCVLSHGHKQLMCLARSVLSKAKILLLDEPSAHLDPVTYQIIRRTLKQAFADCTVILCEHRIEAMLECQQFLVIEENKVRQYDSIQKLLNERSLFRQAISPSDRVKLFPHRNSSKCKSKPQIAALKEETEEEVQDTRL

inhibition at 5 µM [1]	inhibition at 25 µM [2]	inhibition at 5 µM [3]	inhibition at 25 µM [4]	IC50	SMILES
60%	90%	60%	90%	1200 nM	Cn1c(=O)c2c(-c3ccccc3)n3c(c2n(C)c1=O)C(c1cccc([N+](=O)[O-])c1)Nc1ccccc1-3 (stereo not drawn) [PPQ-202, 7,9-Dimethyl-11-phenyl-6-(3-nitrophenyl)-5,6-dihydro-pyrimido[4′,5′-3,4]pyrrolo[1,2-a]quinoxaline-8,10-(7H,9H)-dione]
67%	80%	67%	80%	2500 nM	Cc1cccc(-c2c3c(=O)n(C)c(=O)n(C)c3c3n2-c2ccccc2NC3c2ccccc2F)c1 (stereo not drawn) [PPQ-215, 7,9-Dimethyl-11-(3-methylphenyl)-6-(2-fluorophenyl)-5,6-dihydro-pyrimido[4′,5′-3,4]pyrrolo[1,2-a]quinoxaline-8,10-(7H,9H)-dione]
–	–	34%	77%	–	Cn1c(=O)c2c(-c3ccccc3)n3c(c2n(C)c1=O)C(c1cccs1)Nc1ccccc1-3 (stereo not drawn) [PPQ-113, 7,9-Dimethyl-11-phenyl-6-(thienyl-2-yl)-5,6-dihydro-pyrimido[4′,5′-3,4]pyrrolo[1,2-a]quinoxaline-8,10-(7H,9H)-dione]
–	–	13%	58%	–	Cc1cc2c(cc1C)-n1c(-c3ccccc3)c3c(=O)n(C)c(=O)n(C)c3c1C(c1cc(O)ccc1O)N2 (stereo not drawn) [PPQ-247, 2,3,7,9-Tetramethyl-11-phenyl-6-(2,5-dihydroxyphenyl)-5,6-dihydro-pyrimido[4′,5′-3,4]pyrrolo[1,2-a]quinoxaline-8,10-(7H,9H)-dione]
–	–	< 10%	34%	–	Cn1c(=O)c2c(-c3ccc(Cl)cc3)n3c(c2n(C)c1=O)C(c1ccccc1)Nc1ccccc1-3 (stereo not drawn)
–	–	< 10%	39%	–	COc1ccc(-c2c3c(=O)n(C)c(=O)n(C)c3c3n2-c2ccccc2NC3c2ccccc2F)cc1 (stereo not drawn)
–	–	12%	72%	–	Cc1cccc(-c2c3c(=O)n(C)c(=O)n(C)c3c3n2-c2ccccc2NC3c2ccc(O)c(O)c2)c1 (stereo not drawn) [PPQ-243, 7,9-Dimethyl-11-(3-methylphenyl)-6-(3,4-dihydroxyphenyl)-5,6-dihydro-pyrimido[4′,5′-3,4]pyrrolo[1,2-a]quinoxaline-8,10-(7H,9H)-dione]
–	–	47%	76%	–	Cn1c(=O)c2c(-c3ccccc3F)n3c(c2n(C)c1=O)C(c1cccs1)Nc1ccccc1-3 (stereo not drawn) [PPQ-116, 7,9-Dimethyl-11-(2-fluorophenyl)-6-(thienyl-2-yl)-5,6-dihydro-pyrimido[4′,5′-3,4]pyrrolo[1,2-a]quinoxaline-8,10-(7H,9H )-dione]
–	–	13%	38%	–	Cc1ccc(C2Nc3ccccc3-n3c(-c4ccccc4C)c4c(=O)n(C)c(=O)n(C)c4c32)cc1 (stereo not drawn)
–	–	–	–	2000 nM	Cc1cccc(-c2c3c(=O)n(C)c(=O)n(C)c3c3n2-c2ccccc2NC3c2cccc([N+](=O)[O-])c2F)c1 (stereo not drawn) [PPQ-212, 7,9-Dimethyl-11-(3-methylphenyl)-6-(2-fluoro-3-nitrophenyl)-5,6-dihydro-pyrimido[4′,5′-3,4]pyrrolo[1,2-a]quinoxaline-8,10-(7H,9H)-dione]
–	–	53%	81%	–	Cc1ccccc1-c1c2c(=O)n(C)c(=O)n(C)c2c2n1-c1ccccc1NC2c1ccccc1F (stereo not drawn) [PPQ-234, 7,9-Dimethyl-11-(2-methylphenyl)-6-(2-fluorophenyl)-5,6-dihydro-pyrimido[4′,5′-3,4]pyrrolo[1,2-a]quinoxaline-8,10-(7H,9H)-dione]
–	–	< 10%	44%	–	Cn1c(=O)c2c(-c3ccccc3F)n3c(c2n(C)c1=O)C(c1ccc(Cl)cc1)Nc1ccccc1-3 (stereo not drawn)
–	56%	13%	56%	100000 nM	COc1cc(O)ccc1C1Nc2ccccc2-n2c(-c3ccccc3)c3c(=O)n(C)c(=O)n(C)c3c21 (stereo not drawn) [PPQ-208, 7,9-Dimethyl-11-phenyl-6-(2-methoxy-4-hydroxyphenyl)-5,6-dihydro-pyrimido[4′,5′-3,4]pyrrolo[1,2-a]quinoxaline-8,10-(7H,9H)-dione]
–	–	12%	80%	–	Cc1cc2c(cc1C)-n1c(-c3ccccc3)c3c(=O)n(C)c(=O)n(C)c3c1C(c1ccc(O)cc1O)N2 (stereo not drawn) [PPQ-235, 2,3,7,9-Tetramethyl-11-phenyl-6-(2,4-dihydroxyphenyl)-5,6-dihydro-pyrimido[4′,5′-3,4]pyrrolo[1,2-a]quinoxaline-8,10-(7H,9H)-dione]
–	–	20%	55%	–	COc1cc(O)ccc1C1Nc2ccccc2-n2c(-c3cccc(C)c3)c3c(=O)n(C)c(=O)n(C)c3c21 (stereo not drawn) [PPQ-245, 7,9-Dimethyl-11-(3-methylphenyl)-6-(2-methoxy-4-hydroxyphenyl)-5,6-dihydro-pyrimido[4′,5′-3,4]pyrrolo[1,2-a]quinoxaline-8,10-(7H,9H)-dione]
–	–	12%	40%	–	Cn1c(=O)c2c(-c3ccccc3)n3c(c2n(C)c1=O)C(c1cc([N+](=O)[O-])ccc1O)Nc1ccccc1-3 (stereo not drawn)
–	–	< 10%	31%	–	COc1cccc(C2Nc3ccccc3-n3c(-c4cccc(C)c4)c4c(=O)n(C)c(=O)n(C)c4c32)c1O (stereo not drawn)
–	–	49%	96%	–	Cc1cccc(-c2c3c(=O)n(C)c(=O)n(C)c3c3n2-c2ccccc2NC3c2ccco2)c1 (stereo not drawn) [PPQ-106, 7,9-Dimethyl-11-(3-methylphenyl)-6-(furan-2-yl)-5,6-dihydro-pyrimido[4′,5′-3,4]pyrrolo[1,2-a]quinoxaline-8,10-(7H,9H)-dione]
–	–	< 10%	38%	–	Cc1ccc(C2Nc3ccccc3-n3c(-c4ccccc4)c4c(=O)n(C)c(=O)n(C)c4c32)cc1 (stereo not drawn)
–	–	61%	92%	–	Cc1cc2c(cc1C)-n1c(-c3ccccc3)c3c(=O)n(C)c(=O)n(C)c3c1C(c1ccccc1)N2 (stereo not drawn) [PPQ-226, 2,3,7,9-Tetramethyl-11-phenyl-6-phenyl-5,6-dihydro-pyrimido[4′,5′-3,4]pyrrolo[1,2-a]quinoxaline-8,10-(7H,9H)-dione]
–	–	45%	76%	–	Cn1c(=O)c2c(-c3ccccc3)n3c(c2n(C)c1=O)C(c1cccc(F)c1)Nc1ccccc1-3 (stereo not drawn) [PPQ-239, 7,9-Dimethyl-11-phenyl-6-(3-fluorophenyl)-5,6-dihydro-pyrimido[4′,5′-3,4]pyrrolo[1,2-a]quinoxaline-8,10-(7H,9H)-dione]
46%	–	46%	> 95%	3000 nM	Cc1cccc(C2Nc3ccccc3-n3c(-c4ccccc4C)c4c(=O)n(C)c(=O)n(C)c4c32)c1 (stereo not drawn) [PPQ-217, 7,9-Dimethyl-11-(2-methylphenyl)-6-(3-methylphenyl)-5,6-dihydro-pyrimido[4′,5′-3,4]pyrrolo[1,2-a]quinoxaline-8,10-(7H,9H)-dione]
62%	–	62%	> 95%	3000 nM	COc1cccc(C2Nc3ccccc3-n3c(-c4ccccc4C)c4c(=O)n(C)c(=O)n(C)c4c32)c1 (stereo not drawn) [PPQ-216, 7,9-Dimethyl-11-(2-methylphenyl)-6-(3-methoxyphenyl)-5,6-dihydro-pyrimido[4′,5′-3,4]pyrrolo[1,2-a]quinoxaline-8,10-(7H,9H)-dione]
